Columns and labels:
[1] = tested on: MDA-MB-231; test: Antiproliferative activity against human MDA-MB-231 cells after 72 hrs by MTT assay; assay type: functional, cell-based; settings: MDA-MB-231, 72 h
[2] = tested on: HCT-116; test: Antiproliferative activity against human HCT116 cells after 72 hrs by MTT assay; assay type: functional, cell-based; settings: HCT-116, 72 h
[3] = tested on: WI-38; test: Cytotoxicity against human WI38 cells after 72 hrs by MTT assay; assay type: cell-based; settings: WI-38, 72 h
[4] = tested on: SK-OV-3; test: Antiproliferative activity against human SKOV3 cells after 72 hrs by MTT assay; assay type: functional, cell-based; settings: SK-OV-3, 72 h

| Structure (SMILES) | IC50 [1] [µM] | IC50 [2] [µM] | IC50 [3] [µM] | IC50 [4] [µM] |
| --- | --- | --- | --- | --- |
| O=C(CCc1cccc2c1B(O)OC2)Nc1ccc(Br)cc1 | 5.3 | 46 | 42 | 9.2 |
| O=C(CCc1cccc2c1B(O)OC2)Nc1ccc(Cl)cc1 | 3.6 | 12 | > 100 | 5 |
| N#Cc1ccc(-c2cccc(NC(=O)CCc3cccc4c3B(O)OC4)c2)cc1 | 0.38 | 0.41 | 12 | 0.34 |
| O=C(CCc1cccc2c1B(O)OC2)Nc1cccc2ccccc12 | 0.15 | 0.2 | 1.2 | 0.17 |
| OB1OCc2ccccc21 [BENZOXABOROLE] | > 100 | > 100 | 58 | > 100 |
| COc1cccc(-c2cccc(NC(=O)CCc3ccc4c(c3)B(O)OC4)c2)c1 | 49 | 21 | > 100 | 62 |
| COc1cccc(-c2cccc(NC(=O)CCc3cccc4c3C(O)OC4)c2)c1 (centres undefined) | 52 | 49 | 93 | 61 |
| O=C(CCc1cccc2c1B(O)OC2)Nc1cccc(-c2ccc(OC(F)(F)F)cc2)c1 | 0.64 | 0.73 | 25 | 0.56 |
| COc1cccc(-c2cccc(NC(=O)CCc3ccccc3)c2)c1 | 25 | 40 | > 100 | 24 |
| COc1cccc(-c2cccc(NC(=O)CCc3ccc4c(c3)COB4O)c2)c1 | 90 | 81 | > 100 | > 100 |
| O=C(CCc1cccc2c1B(O)OC2)Nc1ccc(-c2ccccc2)cc1 | 8.8 | 13 | 32 | 48 |
| O=C(CCc1cccc2c1B(O)OC2)Nc1cccc(-c2ccc(Cl)cc2)c1 | 0.26 | 0.38 | 9.8 | 0.22 |
| O=C(CCc1cccc2c1B(O)OC2)NCc1ccccc1 | > 100 | > 100 | > 100 | > 100 |
| O=C(CCc1cccc2c1B(O)OC2)Nc1nccs1 | > 100 | > 100 | > 100 | > 100 |
| O=C(CCc1cccc2c1B(O)OC2)Nc1ccc(I)cc1 | 33 | 50 | 49 | 51 |
| O=C(CCc1cccc2c1B(O)OC2)NCCc1ccccc1 | > 100 | > 100 | > 100 | > 100 |
| CCNC(=O)CCc1cccc2c1B(O)OC2 | > 100 | > 100 | > 100 | > 100 |
| COc1cc(OC)cc(-c2cccc(NC(=O)CCc3cccc4c3COB4O)c2)c1 | 93 | 50 | > 100 | 88 |
| O=C(CCc1cccc2c1B(O)OC2)Nc1cccc(-c2ccccc2)c1 | 0.22 | 0.89 | 12 | 0.25 |
| O=C(CCc1cccc2c1B(O)OC2)Nc1cccc(-c2cccc(C(F)(F)F)c2)c1 | 0.41 | 0.58 | 23 | 0.39 |
| COc1cc(OC)cc(-c2cccc(NC(=O)CCc3cccc4c3B(O)OC4)c2)c1 | 0.04 | 0.053 | 1.7 | 0.044 |

| Structure (SMILES) | IC50 [1] [µM] | IC50 [2] [µM] | IC50 [3] [µM] | IC50 [4] [µM] |
| --- | --- | --- | --- | --- |
| C#Cc1ccc(NC(=O)CCc2cccc3c2B(O)OC3)cc1 | 6.6 | 45 | > 100 | 6.3 |
| Cc1ccc(NC(=O)CCc2cccc3c2B(O)OC3)cc1 | 1.1 | 4.5 | > 100 | 0.86 |
| N#Cc1cccc(-c2cccc(NC(=O)CCc3cccc4c3B(O)OC4)c2)c1 | 0.11 | 0.14 | 7.3 | 0.12 |
| COc1ccc(-c2cccc(NC(=O)CCc3cccc4c3B(O)OC4)c2)cc1 | 0.088 | 0.16 | 1.4 | 0.048 |
| Cc1cc(C)c(NC(=O)CCc2cccc3c2B(O)OC3)c(C)c1 | 71 | 64 | 74 | 19 |
| CC(C)(C)c1ccc(NC(=O)CCc2cccc3c2B(O)OC3)cc1 | 33 | 19 | 55 | 4.2 |
| CCOC(=O)c1ccc(NC(=O)CCc2cccc3c2B(O)OC3)cc1 | > 100 | > 100 | > 100 | > 100 |
| O=C(CCc1cccc2c1B(O)OC2)Nc1ccc2ccccc2c1 | 1.8 | 1.7 | > 100 | 1.4 |
| O=C(CCc1cccc2c1B(O)OC2)Nc1cccc(I)c1 | 5.3 | 2.3 | 71 | 0.63 |
| COc1ccccc1NC(=O)CCc1cccc2c1B(O)OC2 | 0.93 | 0.43 | 1.6 | 0.2 |
| O=C(/C=C/c1cccc2c1B(O)OC2)Nc1ccccc1 | > 100 | > 100 | > 100 | > 100 |
| COc1cc(OC)cc(-c2cccc(NC(=O)CCc3ccc4c(c3)B(O)OC4)c2)c1 | 21 | 3.7 | > 100 | 29 |
| CC(=O)c1ccc(-c2cccc(NC(=O)CCc3ccc4c(c3)COB4O)c2)cc1 | 66 | 63 | > 100 | 79 |
| COc1cccc(-c2cccc(NC(=O)CCc3cccc4c3COB4O)c2)c1 | 76 | 46 | > 100 | 78 |
| CC(C)(C)OC(=O)NCc1ccc(NC(=O)CCc2cccc3c2B(O)OC3)cc1 | 1.3 | 2.3 | 4.8 | 2 |
| O=C(CCc1cccc2c1B(O)OC2)NC1CCCCC1 | > 100 | > 100 | > 100 | > 100 |
| COc1ccc(NC(=O)CCc2cccc3c2B(O)OC3)cc1 | 0.85 | 1.7 | > 100 | 0.9 |
| O=C(CCc1cccc2c1B(O)OC2)Nc1ccc([N+](=O)[O-])cc1 | 36 | > 100 | > 100 | 83 |
| O=C(CCc1cccc2c1B(O)OC2)Nc1cccc(-c2cccc(Cl)c2)c1 | 0.25 | 0.35 | 58 | 0.3 |
| CC(=O)c1ccc(-c2cccc(NC(=O)CCc3cccc4c3COB4O)c2)cc1 | 41 | 48 | > 100 | 57 |
| CC(C)(C)NC(=O)CCc1cccc2c1B(O)OC2 | > 100 | > 100 | > 100 | > 100 |

| Structure (SMILES) | IC50 [1] [µM] | IC50 [2] [µM] | IC50 [3] [µM] | IC50 [4] [µM] |
| --- | --- | --- | --- | --- |
| C#Cc1ccccc1NC(=O)CCc1cccc2c1B(O)OC2 | 1.3 | 1.4 | 18 | 0.82 |
| C#Cc1cccc(NC(=O)CCc2cccc3c2B(O)OC3)c1 | 1.6 | 3.6 | > 100 | 0.98 |
| OB1OCc2cc(F)ccc21 [TAVABOROLE] | > 100 | 65 | 32 | > 100 |
| O=C(CCc1cccc2c1B(O)OC2)Nc1cccc(-c2cccc(F)c2)c1 | 0.57 | 0.46 | 37 | 0.48 |
| O=C(CCc1cccc2c1B(O)OC2)Nc1ccccc1-c1ccccc1 | 18 | 23 | 77 | 26 |
| Cc1ccc(NC(=O)CCc2cccc3c2B(O)OC3)cc1Br | 0.87 | 1.2 | 15 | 0.6 |
| CSc1cccc(-c2cccc(NC(=O)CCc3cccc4c3B(O)OC4)c2)c1 | 0.15 | 0.11 | 2 | 0.15 |
| O=C(CCc1cccc2c1B(O)OC2)Nc1ccc(F)cc1 | 0.44 | 0.65 | 12 | 0.72 |
| CSc1ccc(-c2cccc(NC(=O)CCc3cccc4c3B(O)OC4)c2)cc1 | 0.14 | 0.18 | 3.8 | 0.14 |
| CC(=O)c1cccc(-c2cccc(NC(=O)CCc3cccc4c3B(O)OC4)c2)c1 | 0.052 | 0.086 | 2.2 | 0.068 |
| COc1cccc2c1C(=O)c1c(O)c3c(c(O)c1C2=O)C[C@@](O)(C(=O)CO)C[C@@H]3O[C@H]1C[C@H](N)[C@H](O)[C@H](C)O1 [DOXORUBICIN] | 0.0069 | 0.023 | 0.59 | 0.032 |
| O=C(CCc1ccccc1)Nc1ccccc1 | > 100 | > 100 | > 100 | > 100 |
| COc1cc(OC)cc(-c2cccc(NC(=O)CCc3ccccc3)c2)c1 | 87 | > 100 | > 100 | > 100 |
| O=C(CCc1cccc2c1C(O)OC2)Nc1ccccc1 (centres undefined) | 12 | 22 | 42 | 78 |
| CC(C)(C)OC(=O)Nc1ccc(NC(=O)CCc2cccc3c2B(O)OC3)cc1 | 29 | 24 | > 100 | > 100 |
| COc1cc(OC)cc(-c2cccc(NC(=O)CCc3ccc4c(c3)COB4O)c2)c1 | 77 | 56 | > 100 | 93 |
| O=C(CCc1cccc2c1B(O)OC2)Nc1cccc(Br)c1 | 0.72 | 1.4 | 20 | 0.54 |
| CC(=O)c1ccc(-c2cccc(NC(=O)CCc3ccccc3)c2)cc1 | 2.7 | 4 | 13 | 3.2 |
| CC(=O)c1ccc(-c2cccc(NC(=O)CCc3ccc4c(c3)B(O)OC4)c2)cc1 | 59 | 19 | > 100 | > 100 |
